Data published in PubChem BioAssay (NCI).
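Step 1: Grow cells in 96-well plates. Step 2: Expose to compound for 48 hours at 5 concentrations. Step 3: Interpolate endpoints linearly; if unreached, use highest concentration. Here, GI50 denotes the concentration required for 50% inhibition of growth. TGI: total growth inhibition.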

Experiments:
Assay in all cases: NCI-60 cell line screen, 48 h
[1] = system: MALME-3M melanoma
[2] = system: CCRF-CEM leukemia
[3] = system: PC-3 prostate
[4] = system: HCT-116 colon
[5] = system: M14 melanoma
[6] = system: U251 CNS
[7] = system: MDA-N
[8] = system: SF-268 CNS
[9] = system: HOP-92 NSCLC
[10] = system: HT29 colon
[11] = system: COLO 205 colon
[12] = system: OVCAR-4 ovarian
[13] = system: MDA-MB-231 breast
[14] = system: HCC-2998 colon
[15] = system: SW-620 colon
[16] = system: HL-60(TB) leukemia
[17] = system: LOX IMVI melanoma
[18] = system: NCI/ADR-RES ovarian
[19] = system: TK-10 renal
[20] = system: SN12C renal
[21] = system: OVCAR-3 ovarian
[22] = system: T-47D breast
[23] = system: A498 renal
[24] = system: EKVX NSCLC
[25] = system: ACHN renal
[26] = system: RPMI-8226 leukemia
[27] = system: BT-549 breast
[28] = system: UO-31 renal
[29] = system: NCI-H23 lung
[30] = system: 786-0 renal
[31] = system: HOP-62 NSCLC
[32] = system: SF-295 CNS
[33] = system: NCI-H522 lung
[34] = system: OVCAR-8 ovarian
[35] = system: MCF7 breast
[36] = system: SNB-75 CNS
[37] = system: IGROV1 ovarian
[38] = system: SK-MEL-28 melanoma
[39] = system: CAKI-1 renal
[40] = system: NCI-H460 lung
[41] = system: SR leukemia
[42] = system: KM12 colon
[43] = system: MDA-MB-435
[44] = system: OVCAR-5 ovarian
[45] = system: SK-MEL-2 melanoma
[46] = system: A549 NSCLC
[47] = system: HS 578T breast
[48] = system: UACC-62 melanoma
[49] = system: SF-539 CNS
[50] = system: SK-OV-3 ovarian
[51] = system: SK-MEL-5 melanoma
[52] = system: DU-145 prostate
[53] = system: NCI-H226 lung
[54] = system: RXF 393 renal
[55] = system: UACC-257 melanoma
[56] = system: SNB-19 CNS
[57] = system: MOLT-4 leukemia
[58] = system: HCT-15 colon
[59] = system: K-562 leukemia

Compound: CCOc1ccc(N=NC2C(=O)N(C(=O)CC(=O)Nc3ccc(Cl)cc3)N=C2C)cc1 (stereo unspecified)
- TGI [1]: > 100 µM
- TGI [2]: > 100 µM
- TGI [3]: > 100 µM
- TGI [4]: > 100 µM
- TGI [5]: > 100 µM
- TGI [6]: > 100 µM
- TGI [7]: > 100 µM
- TGI [8]: > 100 µM
- TGI [9]: > 100 µM
- TGI [10]: > 100 µM
- TGI [11]: > 100 µM
- TGI [12]: > 100 µM
- TGI [13]: > 100 µM
- TGI [14]: > 100 µM
- TGI [15]: > 100 µM
- TGI [16]: > 100 µM
- TGI [17]: > 100 µM
- TGI [18]: > 100 µM
- TGI [19]: > 100 µM
- TGI [20]: > 100 µM
- TGI [21]: > 100 µM
- TGI [22]: > 100 µM
- TGI [23]: > 100 µM
- TGI [24]: > 100 µM
- TGI [25]: > 100 µM
- TGI [26]: > 100 µM
- TGI [27]: > 100 µM
- TGI [28]: > 100 µM
- TGI [29]: > 100 µM
- TGI [30]: > 100 µM
- TGI [31]: > 100 µM
- TGI [32]: > 100 µM
- TGI [33]: > 100 µM
- TGI [34]: > 100 µM
- TGI [35]: > 100 µM
- TGI [36]: > 100 µM
- TGI [37]: > 100 µM
- TGI [38]: > 100 µM
- TGI [39]: > 100 µM
- TGI [40]: > 100 µM
- TGI [41]: > 100 µM
- TGI [42]: > 100 µM
- TGI [43]: > 100 µM
- TGI [44]: > 100 µM
- TGI [45]: > 100 µM
- TGI [46]: > 100 µM
- TGI [47]: > 100 µM
- TGI [48]: > 100 µM
- TGI [49]: > 100 µM
- TGI [50]: > 100 µM
- TGI [51]: > 100 µM
- TGI [52]: > 100 µM
- TGI [53]: > 100 µM
- TGI [54]: > 100 µM

Compound: COC(=O)c1ccc(/C=C/C2=CC(=O)C=CC2=O)cc1
- TGI [1]: 36.9 µM
- TGI [2]: 6.54 µM
- TGI [3]: 60.6 µM
- TGI [4]: 29.6 µM
- TGI [5]: > 67.2 µM
- TGI [6]: 41.7 µM
- TGI [7]: > 100 µM
- TGI [8]: 42.9 µM
- TGI [9]: 32.7 µM
- TGI [10]: 48.9 µM
- TGI [11]: > 52.5 µM
- TGI [55]: 34.8 µM
- TGI [12]: 42 µM
- TGI [13]: > 49.2 µM
- TGI [14]: 38.5 µM
- TGI [15]: 48 µM
- TGI [16]: 5.9 µM
- TGI [17]: 23.2 µM
- TGI [18]: 97.9 µM
- TGI [19]: 44.4 µM
- TGI [20]: 58 µM
- TGI [21]: 38.4 µM
- TGI [56]: > 43 µM
- TGI [22]: 33.5 µM
- TGI [23]: 38.6 µM
- TGI [24]: 47.5 µM
- TGI [25]: 32.7 µM
- TGI [26]: 4.49 µM
- TGI [27]: 26.6 µM
- TGI [28]: 17.9 µM
- TGI [29]: 42.4 µM
- TGI [30]: 26.1 µM
- TGI [31]: > 100 µM
- TGI [32]: 78.2 µM
- TGI [33]: 3.6 µM
- TGI [34]: 61.5 µM
- TGI [35]: 27.8 µM
- TGI [36]: 99.4 µM
- TGI [37]: 39.1 µM
- TGI [57]: 7.11 µM
- TGI [38]: 50.8 µM
- TGI [39]: 30.5 µM
- TGI [58]: 36.8 µM
- TGI [40]: > 64.6 µM
- TGI [59]: 8.55 µM
- TGI [41]: 12.7 µM
- TGI [42]: 31.6 µM
- TGI [43]: 44 µM
- TGI [44]: 46 µM
- TGI [45]: > 62.1 µM
- TGI [46]: > 100 µM
- TGI [47]: > 100 µM
- TGI [48]: 40.2 µM
- TGI [49]: 45.6 µM
- TGI [51]: > 52 µM
- TGI [52]: > 100 µM
- TGI [53]: 40.2 µM
- TGI [54]: 42.2 µM

Compound: CC1OC(OC2C(CO)OC(O[C@H]3CC[C@@]4(C)C(=CC[C@H]5[C@@H]6C[C@@H]7O[C@](O)(CC[C@@H](C)COC8OC(CO)C(O)C(O)C8O)[C@@H](C)[C@@H]7[C@@]6(C)CC[C@@H]54)C3)C(OC3OC(C)C(O)C(O)C3O)C2O)C(O)C(O)C1O (stereo partly specified)
- TGI [1]: 4.1 µM
- TGI [2]: 6.38 µM
- TGI [3]: 5.51 µM
- TGI [4]: 4.76 µM
- GI50 [5]: 2.24 µM
- TGI [5]: 4.69 µM
- TGI [6]: 3.62 µM
- TGI [7]: 8.67 µM
- TGI [8]: 8.33 µM
- TGI [11]: 6.81 µM
- TGI [55]: 14.5 µM
- TGI [12]: 20.8 µM
- TGI [13]: 14.8 µM
- TGI [14]: 7.28 µM
- TGI [15]: 2.97 µM
- TGI [16]: 4.14 µM
- TGI [17]: 3.17 µM
- TGI [18]: 4.22 µM
- TGI [19]: 22.8 µM
- GI50 [20]: 2.71 µM
- TGI [20]: 6.95 µM
- TGI [21]: 29.8 µM
- TGI [56]: 6.39 µM
- TGI [22]: 17.9 µM
- TGI [23]: > 100 µM
- TGI [24]: 57.1 µM
- TGI [25]: 12.2 µM
- TGI [26]: 10.2 µM
- TGI [27]: 11.1 µM
- TGI [28]: 8.39 µM
- TGI [29]: 10.3 µM
- TGI [30]: 3.89 µM
- TGI [31]: 4.74 µM
- TGI [32]: 11.8 µM
- TGI [33]: 4.41 µM
- TGI [34]: 4.09 µM
- TGI [35]: 5.93 µM
- TGI [36]: 3.26 µM
- TGI [57]: 3.71 µM
- TGI [38]: 7.55 µM
- TGI [39]: 8.61 µM
- TGI [58]: 3.91 µM
- TGI [40]: 4.57 µM
- TGI [59]: > 43.4 µM
- TGI [41]: 11 µM
- TGI [42]: 6.85 µM
- TGI [43]: 9.32 µM
- TGI [44]: 6.76 µM
- TGI [45]: 12.3 µM
- TGI [46]: 3.16 µM
- TGI [47]: > 100 µM
- TGI [48]: 5.68 µM
- TGI [49]: 4.21 µM
- TGI [50]: 7.34 µM
- TGI [51]: 11.6 µM
- TGI [52]: 4.97 µM
- TGI [54]: 5.38 µM

Compound: CCN(CC)P1(=S)Oc2ccc3ccccc3c2-c2c(ccc3ccccc23)O1
- TGI [1]: > 100 µM
- TGI [2]: > 100 µM
- TGI [3]: > 100 µM
- TGI [4]: > 100 µM
- TGI [5]: > 100 µM
- TGI [6]: > 100 µM
- TGI [7]: > 100 µM
- TGI [9]: > 100 µM
- TGI [10]: > 100 µM
- TGI [11]: > 100 µM
- TGI [55]: > 100 µM
- TGI [12]: > 100 µM
- TGI [13]: > 100 µM
- TGI [14]: > 100 µM
- TGI [15]: > 100 µM
- TGI [16]: > 100 µM
- TGI [17]: > 100 µM
- TGI [18]: > 100 µM
- TGI [19]: > 100 µM
- TGI [20]: > 100 µM
- TGI [21]: > 100 µM
- TGI [56]: > 100 µM
- TGI [22]: > 100 µM
- TGI [23]: > 100 µM
- TGI [24]: > 100 µM
- TGI [25]: > 100 µM
- TGI [26]: > 100 µM
- TGI [27]: > 100 µM
- TGI [28]: > 100 µM
- TGI [29]: > 100 µM
- TGI [30]: > 100 µM
- TGI [31]: > 100 µM
- TGI [32]: > 100 µM
- TGI [33]: > 100 µM
- TGI [34]: > 100 µM
- TGI [35]: > 100 µM
- TGI [36]: > 100 µM
- TGI [37]: > 100 µM
- TGI [57]: > 100 µM
- TGI [38]: > 100 µM
- TGI [39]: > 100 µM
- TGI [58]: > 100 µM
- TGI [40]: > 100 µM
- TGI [59]: > 100 µM
- TGI [41]: > 100 µM
- TGI [42]: > 100 µM
- TGI [43]: > 100 µM
- TGI [44]: > 100 µM
- TGI [45]: > 100 µM
- TGI [46]: > 100 µM
- TGI [47]: > 100 µM
- TGI [48]: > 100 µM
- TGI [49]: > 100 µM
- TGI [50]: > 100 µM
- TGI [51]: > 100 µM
- TGI [52]: > 100 µM
- TGI [53]: > 100 µM
